# ChEMBL document CHEMBL5223131, “A first-in-class clinical G-quadruplex-targeting drug. The bench-to-bedside translation of the fluoroquinolone QQ58 to CX-5461 (Pidnarulex)” (Bioorg Med Chem Lett, 2022)
# Calls of active or inactive are those of the source. The rule behind the calls is not given here.
# What was measured:
# [1] = target: T1, DNA topoisomerase II (Homo sapiens) (UniProt P11388+Q02880); assay: Inhibition of human Top2 assessed as decrease in intensity of decatenated DNA using catenated KDNA at 0.5 to 10 uM; format: protein assay; conditions: dose 0.5-10 µM
# [2] = target: T1, DNA topoisomerase II (Homo sapiens); assay: Inhibition of human Top2 assessed as decrease in enzyme mediated DNA cleavage at site A at low concentration; format: protein assay
# [3] = target: T1, DNA topoisomerase II (Homo sapiens); assay: Inhibition of human Top2 assessed as decrease in enzyme mediated DNA cleavage at site A at high concentration; format: protein assay
# [4] = target: DNA topoisomerase 2-alpha (Homo sapiens) (UniProt P11388); assay: Inhibition of human Top2 assessed as decrease in intensity of decatenated DNA using catenated KDNA at 2 to 50 uM; conditions: dose 2-50 µM
# DNA topoisomerase 2-alpha (Homo sapiens), sequence (P11388 whole entry): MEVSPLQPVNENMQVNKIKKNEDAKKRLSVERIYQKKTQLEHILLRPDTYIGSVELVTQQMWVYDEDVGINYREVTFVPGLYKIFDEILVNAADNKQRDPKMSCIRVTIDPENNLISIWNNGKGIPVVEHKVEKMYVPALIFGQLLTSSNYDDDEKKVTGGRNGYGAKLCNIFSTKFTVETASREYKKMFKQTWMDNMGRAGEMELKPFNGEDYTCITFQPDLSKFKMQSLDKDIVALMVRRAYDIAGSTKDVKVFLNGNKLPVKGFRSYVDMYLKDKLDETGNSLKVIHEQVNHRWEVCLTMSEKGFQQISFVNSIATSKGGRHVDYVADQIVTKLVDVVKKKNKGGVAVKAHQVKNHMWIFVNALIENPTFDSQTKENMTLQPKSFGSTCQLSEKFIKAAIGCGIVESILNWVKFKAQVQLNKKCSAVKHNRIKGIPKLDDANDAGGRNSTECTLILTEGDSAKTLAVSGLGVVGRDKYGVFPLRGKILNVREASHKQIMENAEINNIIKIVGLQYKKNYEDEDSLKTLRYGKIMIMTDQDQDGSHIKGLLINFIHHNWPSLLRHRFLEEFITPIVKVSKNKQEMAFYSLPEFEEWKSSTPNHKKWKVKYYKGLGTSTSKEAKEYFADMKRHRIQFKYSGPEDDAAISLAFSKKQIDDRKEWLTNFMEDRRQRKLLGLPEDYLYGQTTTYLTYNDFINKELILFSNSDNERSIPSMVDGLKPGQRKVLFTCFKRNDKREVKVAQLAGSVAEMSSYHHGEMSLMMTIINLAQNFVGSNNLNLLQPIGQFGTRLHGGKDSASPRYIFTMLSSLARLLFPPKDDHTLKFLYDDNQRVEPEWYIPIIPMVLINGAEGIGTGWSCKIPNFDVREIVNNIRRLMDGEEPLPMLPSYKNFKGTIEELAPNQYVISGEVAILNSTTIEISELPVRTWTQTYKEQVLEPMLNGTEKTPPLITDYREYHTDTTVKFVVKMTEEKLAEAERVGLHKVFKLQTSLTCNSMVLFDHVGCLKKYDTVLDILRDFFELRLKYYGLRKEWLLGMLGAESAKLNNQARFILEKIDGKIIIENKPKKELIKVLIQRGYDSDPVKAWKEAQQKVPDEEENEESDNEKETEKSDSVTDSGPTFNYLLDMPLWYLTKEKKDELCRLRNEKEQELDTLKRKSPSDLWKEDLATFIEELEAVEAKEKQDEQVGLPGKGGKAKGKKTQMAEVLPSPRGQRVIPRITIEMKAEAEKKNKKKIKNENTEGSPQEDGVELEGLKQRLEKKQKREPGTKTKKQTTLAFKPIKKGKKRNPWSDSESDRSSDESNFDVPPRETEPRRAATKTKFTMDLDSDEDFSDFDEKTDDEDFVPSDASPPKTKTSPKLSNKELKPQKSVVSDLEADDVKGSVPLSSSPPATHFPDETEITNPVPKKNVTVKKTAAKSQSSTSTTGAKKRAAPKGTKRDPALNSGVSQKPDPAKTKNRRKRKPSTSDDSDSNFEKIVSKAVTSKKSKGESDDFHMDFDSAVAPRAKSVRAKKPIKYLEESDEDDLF
# [5] = target: T1, DNA topoisomerase II (Homo sapiens); assay: Inhibition of human Top2 assessed as decrease in enzyme mediated DNA cleavage at site A at 0.5 to 10 uM; format: protein assay; conditions: dose 0.5-10 µM
Activity [1],Activity [2],Activity [3],fold change (FC) [4],Activity [5],SMILES
Active,Active,inactive,–,–,N[C@H]1CCN(c2c(F)cc3c(=O)c(C(=O)O)cn4c3c2Oc2ccccc2-4)C1
–,–,–,5,Active,N[C@H]1CCN(c2c(F)cc3c(=O)c(C(=O)O)cn4c3c2Oc2cc3c(cc2-4)oc2ccccc23)C1
